Each structure is given as a SMILES string. Calls of active or inactive are those of the source. The calls are words filed in the database; no cut-off is given here.

As a reminder, the inhibition is how much of the control response was suppressed.

The target in the assay is T1, Sterol O-acyltransferase 1 (Homo sapiens) (UniProt P35610).
T1 sequence (whole entry): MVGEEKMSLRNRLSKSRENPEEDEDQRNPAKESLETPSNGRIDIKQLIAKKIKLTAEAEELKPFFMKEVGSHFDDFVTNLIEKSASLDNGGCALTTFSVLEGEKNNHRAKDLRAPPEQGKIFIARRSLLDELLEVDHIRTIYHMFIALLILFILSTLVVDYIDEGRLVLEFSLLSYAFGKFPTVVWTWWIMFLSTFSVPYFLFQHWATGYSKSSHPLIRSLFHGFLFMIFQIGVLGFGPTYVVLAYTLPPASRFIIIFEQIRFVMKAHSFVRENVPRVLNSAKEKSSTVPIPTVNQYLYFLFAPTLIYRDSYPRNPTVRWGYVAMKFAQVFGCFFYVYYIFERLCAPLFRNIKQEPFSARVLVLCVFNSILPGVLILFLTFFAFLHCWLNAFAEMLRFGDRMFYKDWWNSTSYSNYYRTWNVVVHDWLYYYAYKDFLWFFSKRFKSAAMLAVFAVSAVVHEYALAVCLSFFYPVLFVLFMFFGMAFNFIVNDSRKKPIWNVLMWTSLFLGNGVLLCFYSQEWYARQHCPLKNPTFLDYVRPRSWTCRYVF
Description: Inhibition of ACAT at 10 ug/ml.
Take `COC(=O)CNS(=O)(=O)c1c(OC)cc(OC)c2c(=O)c3cc(OC)c(OC)cc3oc12`: the inhibition is 5.13%. `COc1cc2oc3c(S(=O)(=O)NCc4ccc5ccccc5c4)c(OC)cc(OC)c3c(=O)c2cc1OC` yielded an inhibition of 25%. Next, `COc1cc2oc3c(S(=O)(=O)N4CCN(C)CC4)c(OC)cc(OC)c3c(=O)c2cc1OC`: 14.5%; `COc1cc2oc3c(S(=O)(=O)NCCc4ccc(C)c(C)c4)c(OC)cc(OC)c3c(=O)c2cc1OC`: 11.9%. With `COc1ccc(N2CCN(S(=O)(=O)c3c(OC)cc(OC)c4c(=O)c5cc(OC)c(OC)cc5oc34)CC2)cc1` the figure was 36.9%; with `CCCNS(=O)(=O)c1c(OC)cc(OC)c2c(=O)c3cc(OC)c(OC)cc3oc12`, “inactive”. With `COc1cc2oc3c(S(=O)(=O)NC4CC4)c(OC)cc(OC)c3c(=O)c2cc1OC` the entry was “inactive”.

For the molecule `CNS(=O)(=O)c1c(OC)cc(OC)c2c(=O)c3cc(OC)c(OC)cc3oc12`, the inhibition result is “inactive”. Next, `COc1cc2oc3c(S(=O)(=O)N4CCC(N(C)C)C4)c(OC)cc(OC)c3c(=O)c2cc1OC` (centres undefined): 21%. With `COc1cc2oc3c(S(=O)(=O)N4CCN(c5ccccn5)CC4)c(OC)cc(OC)c3c(=O)c2cc1OC` the figure was 43.6%; with `COc1ccc(CCCN(C)S(=O)(=O)c2c(OC)cc(OC)c3c(=O)c4cc(OC)c(OC)cc4oc23)cc1OC`, 30.1%; with `COc1cc2oc3c(S(=O)(=O)NCc4cccc(Cl)c4)c(OC)cc(OC)c3c(=O)c2cc1OC`, 15.8%. Next, `COc1cc2oc3c(S(=O)(=O)NOCc4ccccc4)c(OC)cc(OC)c3c(=O)c2cc1OC`: 16.8%. Molecule `COc1cc2oc3c(S(=O)(=O)N4CC=C(c5ccccc5)CC4)c(OC)cc(OC)c3c(=O)c2cc1OC` showed an inhibition of 51.3%. With `COc1cc2oc3c(S(=O)(=O)N4CCN(c5cccc(C)c5)CC4)c(OC)cc(OC)c3c(=O)c2cc1OC` the figure was 64.8%; with `COc1cc2oc3c(S(=O)(=O)N4CCCCC4)c(OC)cc(OC)c3c(=O)c2cc1OC`, 10.5%.

For `CCOC(=O)CN(C)S(=O)(=O)c1c(OC)cc(OC)c2c(=O)c3cc(OC)c(OC)cc3oc12`, the inhibition was found to be 16.8%. In the case of `CCN(CC)C(=O)C1CCCN(S(=O)(=O)c2c(OC)cc(OC)c3c(=O)c4cc(OC)c(OC)cc4oc23)C1` (centres undefined), the inhibition was determined as 12.6%.

For `COc1cc2oc3c(S(=O)(=O)NC(c4ccccc4)c4ccccc4)c(OC)cc(OC)c3c(=O)c2cc1OC`, the inhibition result is “inactive”. Next, `COc1cc2oc3c(S(=O)(=O)NCc4ccc(F)cc4)c(OC)cc(OC)c3c(=O)c2cc1OC`: 10.2%. With `COc1cc2oc3c(S(=O)(=O)N4C[C@@H](C)O[C@@H](C)C4)c(OC)cc(OC)c3c(=O)c2cc1OC` the figure was 8.84%. Next, `CCOC(=O)C1CCCN(S(=O)(=O)c2c(OC)cc(OC)c3c(=O)c4cc(OC)c(OC)cc4oc23)C1` (centres undefined): 7.99%; `COc1cc2oc3c(S(=O)(=O)NCC(C)c4ccccc4)c(OC)cc(OC)c3c(=O)c2cc1OC` (centres undefined): 10.8%.

On to `CCCCCCCCCC[Si](C)(C)CCC(=O)NC(Cc1ccc(C)cc1)c1ccccc1` (centres undefined), for which the inhibition amounted to 55%.

(Values after ChEMBL document CHEMBL1157123, “First identification of xanthone sulfonamides as potent acyl-CoA:cholesterol acyltransferase (ACAT) inhibitors” (Bioorg Med Chem Lett, 2010).)
